Assay [1] addresses Mitogen-activated protein kinase 1 (Homo sapiens) (UniProt P28482). The assay can be described thus: Inhibition of ERK2 (unknown origin) at 10 uM by biochemical hotspot kinase assay relative to control.
In assay [2] the target is Calcium/calmodulin-dependent protein kinase type II subunit beta (Homo sapiens) (UniProt Q13554). The assay can be described thus: Inhibition of CAMK2B (unknown origin) at 10 uM by biochemical hotspot kinase assay relative to control.
Assay [3] addresses Proto-oncogene tyrosine-protein kinase Src (Homo sapiens) (UniProt P12931). Put plainly: Inhibition of c-Src (unknown origin) at 10 uM by biochemical hotspot kinase assay.
Assay [4] has as its target Serine/threonine-protein kinase PAK 2 (Homo sapiens) (UniProt Q13177). The assay can be described thus: Inhibition of PAK2 (unknown origin) at 10 uM by biochemical hotspot kinase assay.
Assay [5] addresses Aurora kinase A (Homo sapiens) (UniProt O14965). The assay can be described thus: Inhibition of Aurora A (unknown origin) at 10 uM by biochemical hotspot kinase assay.
Assay [6] addresses Death-associated protein kinase 3 (Homo sapiens) (UniProt O43293). The assay can be described thus: Inhibition of DAPK3 (unknown origin) at 10 uM by biochemical hotspot kinase assay.
The next assay concerns OVCAR-5. Put plainly: Antiproliferative activity against human OVCAR-5 cells assessed as inhibition of cell growth at 10 uM by SRB assay relative to control. It counts as functional. (In general: The SRB assay estimates cell density from bound dye.)
In assay [7] the target is TRAF2 and NCK-interacting protein kinase (Homo sapiens) (UniProt Q9UKE5). Put plainly: Inhibition of TNIK (unknown origin) at 10 uM by biochemical hotspot kinase assay relative to control.
The test system of assay [8] is HT-29. Put plainly: Induction of cell cycle arrest in human HT-29 cells assessed as accumulation of cells at G1 phase at 10 uM incubated for 24 hrs by PI staining based analysis (reference value: 40.3%). It is filed as functional.
The target in assay [9] is Proto-oncogene tyrosine-protein kinase receptor Ret (Homo sapiens) (UniProt P07949). Put plainly: Inhibition of RET (unknown origin) at 10 uM by biochemical hotspot kinase assay.
Assay [10] deals with Death-associated protein kinase 2 (Homo sapiens) (UniProt Q9UIK4). Put plainly: Inhibition of DAPK2 (unknown origin) at 10 uM by biochemical hotspot kinase assay relative to control.
For assay [11], the target named is Fibroblast growth factor receptor 3 (Homo sapiens) (UniProt P22607). Put plainly: Inhibition of FGFR3 (unknown origin) at 10 uM by biochemical hotspot kinase assay relative to control.
Assay [12] deals with Tyrosine-protein kinase Lck (Homo sapiens) (UniProt P06239). Put plainly: Inhibition of LCK (unknown origin) at 10 uM by biochemical hotspot kinase assay relative to control.
Assay [13] addresses Death-associated protein kinase 1 (Homo sapiens) (UniProt P53355). Put plainly: Inhibition of DAPK1 (unknown origin) at 10 uM by biochemical hotspot kinase assay.
Assay [14] concerns the target Tyrosine-protein kinase BTK (Homo sapiens) (UniProt Q06187). Put plainly: Inhibition of BTK (unknown origin) at 10 uM by biochemical hotspot kinase assay relative to control.
Assay [15] deals with Receptor-type tyrosine-protein kinase FLT3 (Homo sapiens) (UniProt P36888). The assay can be described thus: Inhibition of FLT3 (unknown origin) at 10 uM by biochemical hotspot kinase assay relative to control.
The target in assay [16] is Vascular endothelial growth factor receptor 2 (Homo sapiens) (UniProt P35968). The assay can be described thus: Inhibition of VEGFR2 (unknown origin) at 10 uM by biochemical hotspot kinase assay.
The target of assay [17] is Tyrosine-protein kinase SYK (Homo sapiens) (UniProt P43405). Put plainly: Inhibition of SYK (unknown origin) at 10 uM by biochemical hotspot kinase assay relative to control.
Assay [18] concerns the target Protein kinase C alpha type (Homo sapiens) (UniProt P17252). Put plainly: Inhibition of PKCa (unknown origin) at 10 uM by biochemical hotspot kinase assay.
In assay [19] the target is Platelet-derived growth factor receptor alpha (Homo sapiens) (UniProt P16234). The assay can be described thus: Inhibition of PDGFRa (unknown origin) at 10 uM by biochemical hotspot kinase assay.
Assay [20] addresses cAMP-dependent protein kinase (PKA) (Homo sapiens) (UniProt P22694+P17612+P22612). The assay can be described thus: Inhibition of PKA (unknown origin) at 10 uM by biochemical hotspot kinase assay. It counts as protein assay.
For assay [21], the target named is Misshapen-like kinase 1 (Homo sapiens) (UniProt Q8N4C8). Put plainly: Inhibition of MINK (unknown origin) at 10 uM by biochemical hotspot kinase assay relative to control.
The target of assay [22] is Insulin receptor (Homo sapiens) (UniProt P06213). The assay can be described thus: Inhibition of INSR (unknown origin) at 10 uM by biochemical hotspot kinase assay.
Assay [23] concerns the target Vascular endothelial growth factor receptor 3 (Homo sapiens) (UniProt P35916). The assay can be described thus: Inhibition of VEGFR3 (unknown origin) at 10 uM by biochemical hotspot kinase assay relative to control.
Assay [24] has as its target Mitogen-activated protein kinase 15 (Homo sapiens) (UniProt Q8TD08). Put plainly: Inhibition of ERK7 (unknown origin) at 10 uM by biochemical hotspot kinase assay.
Assay [25] deals with Serine/threonine-protein kinase PLK2 (Homo sapiens) (UniProt Q9NYY3). Put plainly: Inhibition of PLK2 (unknown origin) at 10 uM by biochemical hotspot kinase assay relative to control.
The target of assay [26] is Epidermal growth factor receptor (Homo sapiens) (UniProt P00533). Put plainly: Inhibition of EGFR (unknown origin) at 10 uM by biochemical hotspot kinase assay.
Assay [27] relates to HT-29. Put plainly: Induction of cell cycle arrest in human HT-29 cells assessed as accumulation of cells at G1 phase at 2.5 uM incubated for 24 hrs by PI staining based analysis (reference value: 40.3%). It counts as functional.
Assay [28] deals with HT-29. The assay can be described thus: Induction of cell cycle arrest in human HT-29 cells assessed as reduction in accumulation of cells at S phase at 2.5 to 10 uM incubated for 24 hrs by PI staining based analysis. It is filed as functional. The note with it: dose 2.5-10 µM.
Another assay has as its system SNB-75. Put plainly: Antiproliferative activity against human SNB-75 cells assessed as cell growth inhibition at 10 uM by SRB assay relative to control. It counts as functional.
In assay [29] the target is Phosphorylase b kinase gamma catalytic chain, liver/testis isoform (Homo sapiens) (UniProt P15735). Put plainly: Inhibition of PHKG2 (unknown origin) at 10 uM by biochemical hotspot kinase assay relative to control.
The target of assay [30] is Mitogen-activated protein kinase kinase kinase 14 (Homo sapiens) (UniProt Q99558). Put plainly: Inhibition of MAP3K14 (unknown origin) at 10 uM by biochemical hotspot kinase assay relative to control.
The next assay deals with HOP-92. The assay can be described thus: Antiproliferative activity against human HOP-92 cells assessed as cell growth inhibition at 10 uM by SRB assay relative to control. It is filed as functional.
The subject of another assay is HOP-62. Put plainly: Antiproliferative activity against human HOP-62 cells assessed as cell growth inhibition at 10 uM by SRB assay relative to control. It is filed as functional.
Another assay has as its system NCI-H226. The assay can be described thus: Antiproliferative activity against human NCI-H226 cells assessed as cell growth inhibition at 10 uM by SRB assay relative to control. It is filed as functional. The note with it: pooled result: one value given for 4 cell lines, strains, targets or settings.
A further assay relates to SK-MEL-2. The assay can be described thus: Antiproliferative activity against human SK-MEL-2 cells assessed as cell growth inhibition at 10 uM by SRB assay relative to control. It is filed as functional. The following applies: Homo sapiens, SK-MEL-2, dose 10 µM.

The source made the active and inactive calls. The calls are words filed in the database; no cut-off is given here.

Mitogen-activated protein kinase 15 (Homo sapiens), sequence (Q8TD08 whole entry): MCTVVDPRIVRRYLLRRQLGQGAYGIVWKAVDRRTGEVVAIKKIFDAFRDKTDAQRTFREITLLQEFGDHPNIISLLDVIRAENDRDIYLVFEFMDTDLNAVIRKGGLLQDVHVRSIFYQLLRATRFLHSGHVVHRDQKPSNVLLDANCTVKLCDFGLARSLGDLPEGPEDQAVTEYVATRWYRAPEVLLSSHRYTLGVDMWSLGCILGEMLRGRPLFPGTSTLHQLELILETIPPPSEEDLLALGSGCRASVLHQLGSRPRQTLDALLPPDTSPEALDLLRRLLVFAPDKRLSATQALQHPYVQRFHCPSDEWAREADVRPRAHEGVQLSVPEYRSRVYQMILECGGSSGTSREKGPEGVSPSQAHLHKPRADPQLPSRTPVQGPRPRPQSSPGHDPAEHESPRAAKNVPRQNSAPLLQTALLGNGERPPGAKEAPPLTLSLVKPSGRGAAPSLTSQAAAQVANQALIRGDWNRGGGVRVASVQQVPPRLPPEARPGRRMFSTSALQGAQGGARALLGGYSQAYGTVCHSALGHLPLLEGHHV
Phosphorylase b kinase gamma catalytic chain, liver/testis isoform (Homo sapiens), sequence (P15735 whole entry, canonical isoform): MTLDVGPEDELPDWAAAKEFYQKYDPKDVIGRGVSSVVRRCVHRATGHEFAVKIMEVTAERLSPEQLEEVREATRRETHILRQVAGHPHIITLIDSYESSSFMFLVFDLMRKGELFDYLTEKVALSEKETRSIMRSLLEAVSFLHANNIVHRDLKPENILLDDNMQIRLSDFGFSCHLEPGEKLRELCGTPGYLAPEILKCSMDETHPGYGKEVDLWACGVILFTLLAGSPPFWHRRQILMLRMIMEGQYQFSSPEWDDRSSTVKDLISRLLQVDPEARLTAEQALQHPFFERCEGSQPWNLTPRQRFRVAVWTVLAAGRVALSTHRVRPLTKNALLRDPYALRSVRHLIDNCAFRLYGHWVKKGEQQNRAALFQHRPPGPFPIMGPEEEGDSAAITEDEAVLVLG
Mitogen-activated protein kinase kinase kinase 14 (Homo sapiens), sequence (Q99558 whole entry, looked up): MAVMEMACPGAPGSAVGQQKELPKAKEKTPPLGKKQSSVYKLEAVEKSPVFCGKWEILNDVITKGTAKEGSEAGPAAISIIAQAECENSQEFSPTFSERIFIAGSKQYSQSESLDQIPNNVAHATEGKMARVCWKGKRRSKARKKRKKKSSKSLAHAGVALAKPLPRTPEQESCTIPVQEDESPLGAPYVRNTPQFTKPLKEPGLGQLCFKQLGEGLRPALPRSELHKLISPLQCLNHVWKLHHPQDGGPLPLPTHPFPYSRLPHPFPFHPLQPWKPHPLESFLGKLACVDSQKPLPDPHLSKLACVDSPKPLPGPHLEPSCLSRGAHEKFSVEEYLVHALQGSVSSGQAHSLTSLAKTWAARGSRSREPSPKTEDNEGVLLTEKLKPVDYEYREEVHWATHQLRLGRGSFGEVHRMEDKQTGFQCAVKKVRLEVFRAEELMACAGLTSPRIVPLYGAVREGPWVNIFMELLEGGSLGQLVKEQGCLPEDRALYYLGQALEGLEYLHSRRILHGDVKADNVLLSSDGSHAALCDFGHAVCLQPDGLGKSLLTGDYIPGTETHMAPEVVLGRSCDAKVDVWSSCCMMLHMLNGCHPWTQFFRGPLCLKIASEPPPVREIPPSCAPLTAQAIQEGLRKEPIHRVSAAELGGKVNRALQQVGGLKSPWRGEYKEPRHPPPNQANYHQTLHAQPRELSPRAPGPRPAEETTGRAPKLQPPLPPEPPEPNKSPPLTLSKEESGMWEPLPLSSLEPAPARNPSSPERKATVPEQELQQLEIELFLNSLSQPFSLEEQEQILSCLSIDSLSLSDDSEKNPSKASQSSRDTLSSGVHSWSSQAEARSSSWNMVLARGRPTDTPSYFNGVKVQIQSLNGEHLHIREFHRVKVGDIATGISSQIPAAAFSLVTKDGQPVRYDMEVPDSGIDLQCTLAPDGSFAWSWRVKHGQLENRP
Death-associated protein kinase 2 (Homo sapiens), sequence (Q9UIK4 whole entry, looked up): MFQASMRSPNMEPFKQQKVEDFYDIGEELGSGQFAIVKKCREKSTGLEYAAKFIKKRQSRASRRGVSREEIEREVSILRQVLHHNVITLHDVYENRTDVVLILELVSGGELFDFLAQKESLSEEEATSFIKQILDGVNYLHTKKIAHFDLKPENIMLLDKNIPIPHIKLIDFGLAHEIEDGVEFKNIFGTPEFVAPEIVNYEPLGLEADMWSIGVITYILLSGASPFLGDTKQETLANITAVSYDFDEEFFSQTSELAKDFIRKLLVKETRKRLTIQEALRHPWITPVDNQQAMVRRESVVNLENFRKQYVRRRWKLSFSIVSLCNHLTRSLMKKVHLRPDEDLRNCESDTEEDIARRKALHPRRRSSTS
Proto-oncogene tyrosine-protein kinase receptor Ret (Homo sapiens), sequence (P07949 whole entry): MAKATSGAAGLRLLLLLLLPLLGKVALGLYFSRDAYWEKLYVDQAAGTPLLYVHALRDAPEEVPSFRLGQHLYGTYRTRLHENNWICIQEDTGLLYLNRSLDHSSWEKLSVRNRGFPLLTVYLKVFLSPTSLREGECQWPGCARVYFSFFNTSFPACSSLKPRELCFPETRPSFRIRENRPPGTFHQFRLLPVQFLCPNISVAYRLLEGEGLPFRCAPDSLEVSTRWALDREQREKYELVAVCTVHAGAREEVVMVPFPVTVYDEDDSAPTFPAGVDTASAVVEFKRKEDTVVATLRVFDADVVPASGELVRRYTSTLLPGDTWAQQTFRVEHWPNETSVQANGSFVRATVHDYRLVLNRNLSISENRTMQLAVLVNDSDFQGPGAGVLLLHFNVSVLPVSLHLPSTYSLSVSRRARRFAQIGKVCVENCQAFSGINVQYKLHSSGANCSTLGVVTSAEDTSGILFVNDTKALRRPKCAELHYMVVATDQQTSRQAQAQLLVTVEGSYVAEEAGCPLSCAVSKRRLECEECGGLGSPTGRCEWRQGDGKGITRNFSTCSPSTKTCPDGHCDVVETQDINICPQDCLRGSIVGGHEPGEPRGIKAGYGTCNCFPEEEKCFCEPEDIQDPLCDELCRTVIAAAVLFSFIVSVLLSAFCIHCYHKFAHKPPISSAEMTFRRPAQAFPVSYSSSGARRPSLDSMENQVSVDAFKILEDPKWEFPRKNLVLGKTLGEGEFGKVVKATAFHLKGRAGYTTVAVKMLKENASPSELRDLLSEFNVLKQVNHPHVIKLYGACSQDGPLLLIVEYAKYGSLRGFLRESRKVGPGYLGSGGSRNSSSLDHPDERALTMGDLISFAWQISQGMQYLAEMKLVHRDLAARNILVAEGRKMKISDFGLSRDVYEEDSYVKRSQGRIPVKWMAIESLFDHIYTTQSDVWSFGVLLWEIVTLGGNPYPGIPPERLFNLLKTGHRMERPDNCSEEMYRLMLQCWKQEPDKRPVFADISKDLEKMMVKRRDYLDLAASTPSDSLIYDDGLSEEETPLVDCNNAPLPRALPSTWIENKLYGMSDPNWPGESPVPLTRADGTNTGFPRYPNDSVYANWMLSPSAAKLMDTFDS
Insulin receptor (Homo sapiens), sequence (P06213 28-758 limits assumed): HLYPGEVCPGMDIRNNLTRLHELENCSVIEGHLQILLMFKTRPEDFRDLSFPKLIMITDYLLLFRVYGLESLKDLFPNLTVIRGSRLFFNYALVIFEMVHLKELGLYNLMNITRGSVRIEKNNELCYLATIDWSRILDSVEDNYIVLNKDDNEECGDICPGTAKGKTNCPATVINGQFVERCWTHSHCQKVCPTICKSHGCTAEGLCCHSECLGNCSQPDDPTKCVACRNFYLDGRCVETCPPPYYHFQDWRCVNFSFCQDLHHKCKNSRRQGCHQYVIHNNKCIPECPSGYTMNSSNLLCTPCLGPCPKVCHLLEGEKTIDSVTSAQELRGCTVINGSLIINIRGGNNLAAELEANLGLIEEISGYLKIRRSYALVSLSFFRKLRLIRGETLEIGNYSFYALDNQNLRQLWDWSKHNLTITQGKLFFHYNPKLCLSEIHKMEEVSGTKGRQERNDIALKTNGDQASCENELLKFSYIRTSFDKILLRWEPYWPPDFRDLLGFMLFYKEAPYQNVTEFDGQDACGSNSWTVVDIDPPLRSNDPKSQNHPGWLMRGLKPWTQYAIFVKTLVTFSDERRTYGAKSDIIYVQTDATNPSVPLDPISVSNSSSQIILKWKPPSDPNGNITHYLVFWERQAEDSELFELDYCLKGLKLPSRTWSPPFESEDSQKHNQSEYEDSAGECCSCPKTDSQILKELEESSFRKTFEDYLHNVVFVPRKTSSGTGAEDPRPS
Insulin receptor (Homo sapiens), sequence (P06213 763-1382 limits assumed): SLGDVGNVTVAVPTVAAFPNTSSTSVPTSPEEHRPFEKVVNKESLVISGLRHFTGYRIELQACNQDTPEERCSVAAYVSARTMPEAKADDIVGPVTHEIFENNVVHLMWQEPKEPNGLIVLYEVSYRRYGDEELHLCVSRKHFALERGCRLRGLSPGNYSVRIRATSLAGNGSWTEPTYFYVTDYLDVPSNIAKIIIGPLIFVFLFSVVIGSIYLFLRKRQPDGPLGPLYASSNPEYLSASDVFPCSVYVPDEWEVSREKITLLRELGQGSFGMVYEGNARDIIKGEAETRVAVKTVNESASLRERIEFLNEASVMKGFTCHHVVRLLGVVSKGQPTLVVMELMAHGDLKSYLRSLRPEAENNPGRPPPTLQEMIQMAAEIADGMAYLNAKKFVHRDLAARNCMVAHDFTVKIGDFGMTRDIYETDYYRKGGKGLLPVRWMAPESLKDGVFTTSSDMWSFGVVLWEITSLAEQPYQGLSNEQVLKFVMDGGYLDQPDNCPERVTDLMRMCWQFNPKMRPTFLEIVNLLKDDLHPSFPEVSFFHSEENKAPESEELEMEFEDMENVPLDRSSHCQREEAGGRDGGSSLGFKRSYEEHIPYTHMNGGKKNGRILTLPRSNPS

The term inhibition denotes the percentage by which the read-out fell short of the control. As to `COc1cc2oc(-c3cccc(C(=O)Nc4ccc(C)cc4)c3)cc(=O)c2c(OC)c1OC`, the inhibition in [1] amounted to 17.2%; in assay [2], 1.99%; in assay [7], 46.1%; in assay [10], 0.74%; in [11], 0.26%; in assay [12], 0.68%. For the same compound, the inhibition amounted to 9.9% in assay [14]; 10.7% in assay [15]; 1.17% in assay [17]; 41% in assay [21]; 8.65% in assay [23]; 10.5% in [25]. Further, the figures for the inhibition in assay [29] and in assay [30] were 8.33% and 20.9%, respectively. Moreover, the inhibition entry in [3], in [4], in assay [5], in [6], in assay [9] and in assay [13] was “inactive” throughout. For the same compound, the inhibition result in [16], in assay [18], in [19], in [20], in [22] and in assay [24] was “inactive” in each case. Moreover, the inhibition result in assay [26] was “inactive”. Besides, the inhibition at 10 µM in the assay with OVCAR-5 is 51.8%; in the assay with SNB-75 it was more than 50%. The Activity in the assay on HT-29 [8] is reported as 64%; in the assay on HT-29 [27], 55.4%. Also, in the assay on HT-29 [28], the outcome was Active.

Turning to `COc1cc2oc(-c3cccc(C(=O)Nc4ccc(Cl)cc4)c3)cc(=O)c2c(OC)c1OC`, the inhibition at 10 µM stood at 87.2% with HOP-92, 87.2% in the assay on HOP-62, 51.8% in the assay with NCI-H226 and 68.6% with SK-MEL-2.

The values above are taken from ChEMBL document CHEMBL5260845, “Flavone-based arylamides as potential anticancers: Design, synthesis and in vitro cell-based/cell-free evaluations” (2020).
